“And” between values parts separate entries of the source, which are not always exact repeats. Identical values can stand only once. Like-named read-outs stand apart in the source and are kept apart here.
Assays:
HIV-1NL4-3 = test: HIV-1 infectivity assay in TZM-bl reporter cell line (LTR-luciferase, 48 h); type: cell-based; details: for inhibition at 1 µM: Human immunodeficiency virus 1, TZM-bl
Outline: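 Read-out is luciferase from an integrated HIV-1 LTR reporter in TZM-bl cells, 48 h after HIV-1NL4-3 infection in the presence of 1 μM compound. Scale set by DMSO-treated wild-type-infected cells (0%) and Nef-defective virus (100% Nef-dependent effect). Cell Titer Blue measures cytotoxicity without virus.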

TZM-bl cell line = type: cell-based; details: human, 1 μM
Outline: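 Luciferase read-out 48 h post-infection; compound at 1 μM during HIV-1NL4-3 infection of TZM-bl cells. Percent inhibition scaled to DMSO wild-type virus (0%) and DMSO Nef-defective virus (100% of Nef-dependent effect). Viability checked separately in uninfected cells by Cell Titer Blue.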

HIV-1 NefNL4-3 = HIV-1 NefNL4-3 (Human immunodeficiency virus type 1 group M subtype B, UniProt P03406, A33V/T15A/T51N/V11I); test: Surface plasmon resonance binding to recombinant full-length Nef (NL4-3); details: for Nef NL4-3 Binding, SPR 1:1 or 2-site fitting KD1: 1:1 Langmuir fit where the KD2 cell says '1 to 1 fitting', else 2-site fit; for RU30/RUNef (extent of binding): response units at 30 μM relative to Nef immobilized on the SPR chip
HIV-1 Nef SF2 = target: T1, HIV-1 Nef SF2 (Human immunodeficiency virus type 1 group M subtype B, UniProt P03407); test: biochemical; type: binding; details: two-step induced-fit model, Reichert SPR, read-out: Reichert SPR Nef SF2 (M) two-step fitting
T1 construct: made in house

HIV-1 NL4-3 = test: HIV-1 replication in normal donor PBMCs (p24 Gag AlphaLISA); type: cell-based; details: Table 1, 4 days, words (Not active, Borderline) where no bound is given
Experimental: (§1) FIG. 4. Inhibition of HIV-1 replication by compounds disclosed herein in PBMCs. Donor PBMCs were infected with HIV-1 in the presence of inhibitor concentrations ranging from 1 to 1,000 nM or the DMSO carrier solvent as a negative control (0.1% DMSO final). Replication was assessed by p24 Gag AlphaLISA (Perkin Elmer) […]. Each donor was also infected with Nef-defective HIV-1 to establish the baseline for Nef-dependent enhancement of replication in each culture. Cytotoxicity was assessed in uninfected PBMCs over the same incubation period using the CellTiter-Blue assay (Promega). Data were fit by non-linear regression analysis (GraphPad Prism v.7.04) to determine the IC50 and CC50 values shown.
The tables also show data for HIV-1 Replication in normal donor peripheral blood mononuclear cells (PBMCs), which is assay is conducted as follows:
(§2) Non-HLA-typed buffy coats (Source: Pittsburgh Central Blood Bank, #E3755) are received and processed within 24 hours of blood donation. PBMCs are isolated via rocking for RBC separation following 1:1 dilution with PBS, followed by Ficoll gradient centrifugation. The lymphocyte fraction is removed and washed several times for a final concentration of ˜150-300×10^6 cells per donor. Cells are activated for 3 days with 1-5 μg/mL PHA (Sigma) and 50 U/mL IL-2. Cells are plated at 750,000 cells/ml and viability is checked at day 3 using the Cell Titer Blue assay (Promega). If cells are >90% viable, then they are infected with HIV-1 NL4-3, wild-type or Δ-Nef mutant (input typically 30-500 pg/mL p24 capsid equivalents) in the presence or absence of Nef inhibitor analogs. IL-2 is included in the media at the time of infection. After 4 days, cells are lysed with 1% Triton X-100 for 1.5 h, checked for viability via Cell Titer Blue, and frozen/stored at −20° C. HIV-1 replication is assessed with a high-sensitivity HIV-1 p24 AlphaLISA assay (Perkin Elmer) in ½-volume 96-well plates, using one-half of the recommended assay volumes for all reagents (including samples). Assays are read on the BioTek Cytation5 instrument; readout is in AlphaUnits and replication in p24 pg/mL is determined using an HIV-1 p24 capsid protein standard included in the Alpha kit.

uninfected PBMCs = type: cell-based; details: human
Experimental: as §1, §2

[1] = target: Nef from SIV (strain mac239) (Simian immunodeficiency virus, UniProt Q5QGG3); test: biochemical
Experimental: Also shown are SPR data recorded on a Reichert 4-channel SPR instrument. […] Recombinant Nef is immobilized on the biosensor surface, and each compound is injected and association/dissociation kinetics are recorded. The resulting data for the 3 isoforms are each best-fit using both a two-site model and a two-step, induced-fit model. Dissociation constants (KD), calculated from the kinetic association and dissociation constants from all three isoforms, are shown in columns 6-7. Data were fit using three regimes and the resulting KD: from each model are shown in the Table: 1:1 Langmuir fit; 2-site fit, which yields low and high affinity components; and a 2-step induced fit model.

[2] = 1.0 μM, TZM-bl reporter cell line, Table 4, read-out: % Infectivity Inhibition
[3] = 1 μM, TZM-bl, normalized: DMSO wild-type HIV-1 = 0%, Nef-defective HIV-1 = 100%, read-out: HIV-1 Infectivity % Inhibition norm. to Δ-Nef @ 1 μM
[4] = Table 1, TZM-bl cells, 1 μM, 48 h, 100% = Nef-defective HIV-1
[5] = KD, M, Table 4, SPR fit 2-step induced fit, KD = koff/kon × koff2/(koff2 + kon2)
[6] = Nef NL4-3 Binding, SPR 2-state fitting KD, Table 1, 2-step induced-fit model
[7] = Reichert SPR Nef NL43 (M) two-step fitting, KD, two-step induced-fit model, Reichert SPR, Table 3
[8] = Table 4, 2-step induced fit, T = 1/koff2
[9] = read-out: Nef NL4-3 Binding, SPR 1:1 or 2-site fitting KD2, Table 1, 2-site fit, second component
[10] = 48 h, Table 1, TZM-bl cells, 1 μM, 48 h, 100% = Nef-defective HIV-1, read-out: HIV-1 Infectivity % Inhibition Norm. to Δ-Nef @ 1 μM
[11] = Nef NL4-3 Binding, SPR 1:1 or 2-site fitting KD2, Table 1, 2-site fit, second component
[12] = KD, M, Table 4, SPR fit 1:1 Langmuir, KD = koff/kon
[13] = Table 4, 1:1 Langmuir fit, T = 1/koff

| SMILES | inhibition at 1 µM (HIV-1NL4-3; [2]) [%] | inhibition at 1 µM (HIV-1NL4-3; [3]) [%] | % Cell Viability (TZM-bl cell line) [%] | Toxicity % Viability @ 1 μM (TZM-bl) (TZM-bl cell line) [%] | Kd (HIV-1 NefNL4-3) [M] | Kd (HIV-1 NefNL4-3; [5]) [M] | Kd (HIV-1 NefNL4-3; [6]) | Kd (HIV-1 NefNL4-3; [7]) [M] | T, minutes (residence time) (HIV-1 NefNL4-3; [8]) | RU30/RUNef (extent of binding) (HIV-1 NefNL4-3) | Kd (HIV-1 Nef SF2) [M] | Toxicity in HIV Replication PBMC (Toxic @ concentration) (uninfected PBMCs) | Kd [1] [nM] | inhibition at 1 µM (HIV-1NL4-3; [10]) [%] | Percent Viability @ 1 μM (TZM-bl cells) (TZM-bl cell line) [%] | HIV Replication PBMC IC50 vs. HIV NL4-3 (HIV-1 NL4-3) | Kd (HIV-1 NefNL4-3; [12]) [M] | T, minutes (residence time) (HIV-1 NefNL4-3; [13]) | other results |
| --- | --- | --- | --- | --- | --- | --- | --- | --- | --- | --- | --- | --- | --- | --- | --- | --- | --- | --- | --- |
| Oc1c(CCc2ccncc2)c(-c2ccc(C(F)(F)F)cc2)nn1-c1nc2ccccc2[nH]1 [Compound I-101, 1-(1H-1,3-benzodiazol-2-yl)-4-[2-(pyridin-4-yl)ethyl]-3-[4-(trifluoromethyl)phenyl]-1H-pyrazol-5-ol] | 100 | 128 | 76.3 | 76.3 | 1.77e-06 | 2.91e-10 | 2.91e-10 M | 2.91e-10 | 7.00E + 04 minutes | 1.33E- 02 | 1.43e-10 | Toxic @ 1 μM | 25.4 |  |  |  |  |  | HIV-1 Infectivity % Inhibition Norm. to Δ-Nef @ 1 μM (HIV-1NL4-3; [4]): 78.5%; Nef NL4-3 Binding, SPR 1:1 or 2-site fitting KD1 (HIV-1 NefNL4-3; Table 1): No Interaction; Kd (HIV-1 NefNL4-3; [9]): 1.47e-05 M; IC50 (HIV-1 NL4-3; Human immunodeficiency virus 1, NL43, PBMC, 96 h): ≤ 1 nM |
| CS(=O)(=O)c1ccc(-c2nn(-c3nc4ccccc4[nH]3)c(O)c2CCc2ccc(F)cc2)cc1 [Compound I-148, 1-(1H-1,3-benzodiazol-2-yl)-4-[2-(4-fluorophenyl)ethyl]-3-(4-methanesulfonylphenyl)-1H-pyrazol-5-ol] | 98.1 | 98.1 | 75.5 |  | 6.56e-07 | 3.33e-10 | 3.33e-10 M | 3.33e-10 | 3.26E + 04 minutes | 1.32E- 02 | 2.07e-11 | Toxic @ 1 μM | 1.08 | 98.1 | 75.5 | Not active |  |  | Kd (HIV-1 NefNL4-3; [11]): 1.77e-06 M |
| O=C(OCc1ccccc1)N1CCC(Cc2c(-c3ccc(C(F)(F)F)cc3)nn(-c3nc4ccccc4[nH]3)c2O)CC1 [Compound I-162, benzyl 4-{[1-(1H-1,3-benzodiazol-2-yl)-5-hydroxy-3-[4-(trifluoromethyl)phenyl]-1H-pyrazol-4-yl]methyl}piperidine-1-carboxylate] | 77.5 |  | 90.8 |  | 1.86e-09 |  |  |  |  | 4.69E- 03 |  | Toxic @ 1 μM |  |  |  | Not active | 1.86e-09 | 8.05E + 03 minutes | Nef NL4-3 Binding, SPR 1:1 or 2-site fitting KD1 (HIV-1 NefNL4-3; Table 1): No Interaction |
| O=C(OCc1ccccc1)N1CCC(c2nn(-c3nc4cccc(Cl)c4[nH]3)c(O)c2CCc2ccc(F)cc2)CC1 [Compound I-166, benzyl 4-[1-(7-chloro-1H-1,3-benzodiazol-2-yl)-4-[2-(4-fluorophenyl)ethyl]-5-hydroxy-1H-pyrazol-3-yl]piperidine-1-carboxylate] | 24.6 |  | 97.0 |  | 6.03e-09 |  |  |  |  | 4.21E- 03 |  | Toxic @ 1 μM |  | 24.6 | 97.0 | Not active | 6.03e-09 | 2.07E + 03 minutes |  |
| CC(C)(C)OC(=O)N1CCC(CCc2c(-c3ccc(S(C)(=O)=O)cc3)nn(-c3nc4ccccc4[nH]3)c2O)CC1 [Compound I-201, tert-butyl 4-{2-[1-(1H-1,3-benzodiazol-2-yl)-5-hydroxy-3-(4-methanesulfonylphenyl)-1H-pyrazol-4-yl]ethyl}piperidine-1-carboxylate] | 53.4 | 53.4 | 70.5 | 70.5 |  | 3.94e-07 | 3.94e-07 M and 1.93e-06 M | 3.94e-07 | 2.62E + 01 minutes | 1.83E- 02 | 5.01e-07 | Toxic @ 1 μM | 23.8 |  |  | Not active |  |  |  |
| CC(C)(C)OC(=O)N1CCC(CCc2c(-c3ccc(S(C)(=O)=O)cc3)nn(-c3nc4cc(Cl)ccc4[nH]3)c2O)CC1 [Compound I-215, tert-butyl 4-{2-[1-(5-chloro-1H-1,3-benzodiazol-2-yl)-5-hydroxy-3-(4-methanesulfonylphenyl)-1H-pyrazol-4-yl]ethyl}piperidine-1-carboxylate] | 53.5 |  | 74.5 |  |  | 1.62e-07 |  |  | 5.87E + 01 minutes | 1.00E- 02 |  | Toxic @ 1 μM |  |  |  | Not active |  |  | HIV-1 Infectivity % Inhibition Norm. to Δ-Nef @ 1 μM (HIV-1NL4-3; [4]): 73.6% |
| Oc1c(CCc2ccc(F)cc2)c(-c2ccc(C(F)(F)F)cc2)nn1-c1nc2cccnc2[nH]1 [Compound I-301, 4-[2-(4-fluorophenyl)ethyl]-1-{1H-imidazo[4,5-b]pyridin-2-yl}-3-[4-(trifluoromethyl)phenyl]-1H-pyrazol-5-ol] | 81.2 | 81.2 | 90.7 | 90.7 |  | 6e-11 |  | 6e-11 |  | 1.34E- 02 | 3.69e-08 | Toxic @ 1 μM | 1.74 |  |  |  |  |  | Kd (HIV-1 NefNL4-3; [11]): 2.31e-05 M |
| Oc1c(CCc2ccc(F)cc2)c(-c2ccc(C(F)(F)F)cc2)nn1-c1nc2ccncc2[nH]1 [Compound I-309, 4-[2-(4-fluorophenyl)ethyl]-1-{3H-imidazo[4,5-c]pyridin-2-yl}-3-[4-(trifluoromethyl)phenyl]-1H-pyrazol-5-ol] | 92.2 |  | 99.1 |  | 5.76e-10 |  |  |  |  | 1.59E- 03 |  | Toxic @ 1 μM |  | 92.2 | 99.1 | Not active | 5.76e-10 | 1.78E + 04 minutes |  |
| CC(C)OC(=O)N1CCC(c2nn(-c3nc4cc(Cl)ccc4[nH]3)c(O)c2CCC2CCOCC2)CC1 [Compound I-701, propan-2-yl4-[1-(5-chloro-1H-1,3-benzodiazol-2-yl)-5-hydroxy-4-[2-(oxan-4-yl)ethy1]-1H-pyrazol-3-yl]piperidine-1-carboxylate] | 100 | 106 | 98.7 |  | 2.64e-08 | 2.88e-06 | 2.88e-06 M | 2.88e-06 | 4.73E + 00 minutes | 5.85E- 03 | 1.37e-07 | Toxic @ 10 nM | 19300 | 106 | 98.7 |  |  |  | Kd (HIV-1 NefNL4-3; [9]): 4.02e-06 M |
